What was measured:
beta amyloid (Aβ1-42) = molecular target: T1, beta amyloid (Aβ1-42) (Homo sapiens, UniProt P05067); test: Inhibition of beta amyloid aggregation, fluorescence analysis (ThioflavinT assay); assay type: biochemical
T1 construct: beta amyloid (Aβ1-42, AnaSpec Inc, USA); purchased AnaSpec Inc, USA
Description: The effect of kaempferol3-O-[2-O″-(E)-p-coumaroyl][beta-D-glucopyranosyl-(1→3)-O-alpha-L-rhamnopyranosyl-(1→6)-O-beta-D-glucopyranoside] on inhibition of beta amyloid aggregation was confirmed by the fluorescence analysis (ThioflavinT assay). Specifically, beta amyloid (Aβ1-42, AnaSpec Inc, USA) was obtained and used at a concentration of 0.1 mg/ml and stored at −80° C. before use. Morin (20 μM), phenol red (20 μM), and kaempferol3-O-[2-O″-(E)-p-coumaroyl][beta-D-glucopyranosyl-(1→3)-O-alpha-L-rhamnopyranosyl-(1→6)-O-beta-D-glucopyranoside] (1 mg/ml) were respectively diluted with DMSO so as to be adjusted to the concentrations. In order to specify the degree of inhibition of Aβ1-42 aggregation, each of the compounds prepared at the above concentrations was diluted with 50 μL of 0.01 M sodium phosphate buffer solution to have a concentration of 10 μM, then 40 μL of 0.1 mg/ml of Aβ1-42 was added thereto, and then 10 μl of 2 mM thioflavinT was added thereto, and fluorescence was measured using a fluorescence spectrometer (RF-5300PC, SHIMADZU CORPORATION, Japan) at 37° C. for 150 minutes at intervals of 5 minutes. In the above table, “RFU” denotes the relative fluorescence unit, and “Increased RFU” denotes the amount of aggregated beta amyloid, and “Increased RFU (% of Pos.Cont.)” denotes the percentage value of the amount of aggregated beta amyloid with respect to that of the positive control group. “Novel substance 33” denotes kaempferol3-O-[2-O″-(E)-p-coumaroyl][beta-D-glucopyranosyl-(1→3)-O-alpha-L-rhamnopyranosyl-(1→6)-O-beta-D-glucopyranoside].

healthy adult subjects = test: Human repeated insult patch test (HRIPT), cumulative skin irritation; assay type: in vivo; conditions: for Number of subjects showed ± reactivity, 1st time / Number of subjects showed + reactivity, 1st time / Number of subjects showed ++ reactivity, 1st time: 1st patch; for Number of subjects showed ± reactivity, 1st time / Number of subjects showed ± reactivity, 2nd time / Number of subjects showed ± reactivity, 3rd time / Number of subjects showed ± reactivity, 4th time / Number of subjects showed ± reactivity, 5th time / Number of subjects showed ± reactivity, 6th time / Number of subjects showed ± reactivity, 7th time / Number of subjects showed ± reactivity, 8th time / Number of subjects showed ± reactivity, 9th time: 1st of 3 lines (±); for Number of subjects showed + reactivity, 1st time / Number of subjects showed + reactivity, 2nd time / Number of subjects showed + reactivity, 3rd time / Number of subjects showed + reactivity, 4th time / Number of subjects showed + reactivity, 5th time / Number of subjects showed + reactivity, 6th time / Number of subjects showed + reactivity, 7th time / Number of subjects showed + reactivity, 8th time / Number of subjects showed + reactivity, 9th time: 2nd of 3 lines (+); for Number of subjects showed ++ reactivity, 1st time / Number of subjects showed ++ reactivity, 2nd time / Number of subjects showed ++ reactivity, 3rd time / Number of subjects showed ++ reactivity, 4th time / Number of subjects showed ++ reactivity, 5th time / Number of subjects showed ++ reactivity, 6th time / Number of subjects showed ++ reactivity, 7th time / Number of subjects showed ++ reactivity, 8th time / Number of subjects showed ++ reactivity, 9th time: 3rd of 3 lines (++); for Number of subjects showed ± reactivity, 2nd time / Number of subjects showed + reactivity, 2nd time / Number of subjects showed ++ reactivity, 2nd time: 2nd patch; for Number of subjects showed ± reactivity, 3rd time / Number of subjects showed + reactivity, 3rd time / Number of subjects showed ++ reactivity, 3rd time: 3rd patch; for Number of subjects showed ± reactivity, 4th time / Number of subjects showed + reactivity, 4th time / Number of subjects showed ++ reactivity, 4th time: 4th patch; for Number of subjects showed ± reactivity, 5th time / Number of subjects showed + reactivity, 5th time / Number of subjects showed ++ reactivity, 5th time: 5th patch; for Number of subjects showed ± reactivity, 6th time / Number of subjects showed + reactivity, 6th time / Number of subjects showed ++ reactivity, 6th time: 6th patch; for Number of subjects showed ± reactivity, 7th time / Number of subjects showed + reactivity, 7th time / Number of subjects showed ++ reactivity, 7th time: 7th patch; for Number of subjects showed ± reactivity, 8th time / Number of subjects showed + reactivity, 8th time / Number of subjects showed ++ reactivity, 8th time: 8th patch; for Average reactivity: 9 patches over three weeks, safe when less than 3; for Number of subjects showed ± reactivity, 9th time / Number of subjects showed + reactivity, 9th time / Number of subjects showed ++ reactivity, 9th time: 9th patch
Description: Human repeated insult patch tests (HRIPT) were conducted to determine the cumulative skin irritation by kaempferol3-O-[2-O″-(E)-p-coumaroyl][beta-D-glucopyranosyl-(1→3)-O-alpha-L-rhamnopyranosyl-(1→6)-O-beta-D-glucopyranoside] and to calculate the concentration range in which kaempferol3-O-[2-O″-(E)-p-coumaroyl][beta-D-glucopyranosyl-(1→3)-O-alpha-L-rhamnopyranosyl-(1→6)-O-beta-D-glucopyranoside] can be used on the skin.
Specifically, 15 healthy adult subjects were randomly selected, the test compositions (compositions for skin containing an emulsifier, a stabilizer, purified water, and the like in addition to the compound) containing the compound at 0.5 wt %, 1 wt %, and 3 wt % were dropped by 20 μl per chamber (IQ chamber, Epitest Ltd, Finland), and the patch was applied to the right side of the upper back of the subject and then replaced with new one after 24 hours. The skin reaction was examined before and after the patch test while the patch test was conducted three times a week and thus nine times for three weeks in total in this manner, the skin reaction was observed until the 48th hour after removal of the final patch, and the average reactivity was determined.
The skin reaction was judged according to the criteria of the International Contact Dermatitis Research Group (ICDRG). In the above table, “Novel substance 33” denotes kaempferol3-O-[2-O″-(E)-p-coumaroyl][beta-D-glucopyranosyl-(1→3)-O-alpha-L-rhamnopyranosyl-(1→6)-O-beta-D-glucopyranoside].

T1 sequence (P05067 672-713 limits assumed): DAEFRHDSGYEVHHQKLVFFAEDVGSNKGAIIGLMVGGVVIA

- Increased RFU (% of Pos. Cont.) (beta amyloid (Aβ1-42); compound 10 μM, Aβ1-42 0.1 mg/ml, 37° C., 150 minutes, Pos. Cont. (beta amyloid only) = 100): 77.0%
- Increased RFU (amount of aggregated beta amyloid) (beta amyloid (Aβ1-42); compound 10 μM, Aβ1-42 0.1 mg/ml, thioflavinT, 37° C., 150 minutes): 11235 RFU
- inhibition of beta amyloid aggregation as compared with the positive control group (beta amyloid (Aβ1-42); positive control (only beta amyloid, no compound) taken as 100%): 23.0%
SMILES: CC1OC(OCC2OC(Oc3c(-c4ccc(O)cc4)oc4cc(O)cc(O)c4c3=O)C(OC(=O)/C=C/c3ccc(O)cc3)C(O)C2O)C(O)C(OC2OC(CO)C(O)C(O)C2O)C1O [Novel substance 33, kaempferol3-O-[2-O″-(E)-p-coumaroyl][beta-D-glucopyranosyl-(1→3)-O-alpha-L-rhamnopyranosyl-(1→6)-O-beta-D-glucopyranoside]]
- Number of subjects showed ± reactivity, 1st time (healthy adult subjects; 0.5 wt %): 0 persons
- Number of subjects showed + reactivity, 1st time (healthy adult subjects; 0.5 wt %): 0 persons
- Number of subjects showed ++ reactivity, 1st time (healthy adult subjects; 0.5 wt %): 0 persons
- Number of subjects showed ± reactivity, 2nd time (healthy adult subjects; 0.5 wt %): 0 persons
- Number of subjects showed + reactivity, 2nd time (healthy adult subjects; 0.5 wt %): 0 persons
- Number of subjects showed ++ reactivity, 2nd time (healthy adult subjects; 0.5 wt %): 0 persons
- Number of subjects showed ± reactivity, 3rd time (healthy adult subjects; 0.5 wt %): 0 persons
- Number of subjects showed + reactivity, 3rd time (healthy adult subjects; 0.5 wt %): 0 persons
- Number of subjects showed ++ reactivity, 3rd time (healthy adult subjects; 0.5 wt %): 0 persons
- Number of subjects showed ± reactivity, 4th time (healthy adult subjects; 0.5 wt %): 0 persons
- Number of subjects showed + reactivity, 4th time (healthy adult subjects; 0.5 wt %): 0 persons
- Number of subjects showed ++ reactivity, 4th time (healthy adult subjects; 0.5 wt %): 0 persons
- Number of subjects showed ± reactivity, 5th time (healthy adult subjects; 0.5 wt %): 0 persons
- Number of subjects showed + reactivity, 5th time (healthy adult subjects; 0.5 wt %): 0 persons
- Number of subjects showed ++ reactivity, 5th time (healthy adult subjects; 0.5 wt %): 0 persons
- Number of subjects showed ± reactivity, 6th time (healthy adult subjects; 0.5 wt %): 0 persons
- Number of subjects showed + reactivity, 6th time (healthy adult subjects; 0.5 wt %): 0 persons
- Number of subjects showed ++ reactivity, 6th time (healthy adult subjects; 0.5 wt %): 0 persons
- Number of subjects showed ± reactivity, 7th time (healthy adult subjects; 0.5 wt %): 0 persons
- Number of subjects showed + reactivity, 7th time (healthy adult subjects; 0.5 wt %): 0 persons
- Number of subjects showed ++ reactivity, 7th time (healthy adult subjects; 0.5 wt %): 0 persons
- Number of subjects showed ± reactivity, 8th time (healthy adult subjects; 0.5 wt %): 0 persons
- Number of subjects showed + reactivity, 8th time (healthy adult subjects; 0.5 wt %): 0 persons
- Number of subjects showed ++ reactivity, 8th time (healthy adult subjects; 0.5 wt %): 0 persons
- Average reactivity (healthy adult subjects; 0.5 wt %): 0
- Number of subjects showed ± reactivity, 9th time (healthy adult subjects; 0.5 wt %): 0 persons
- Number of subjects showed + reactivity, 9th time (healthy adult subjects; 0.5 wt %): 0 persons
- Number of subjects showed ++ reactivity, 9th time (healthy adult subjects; 0.5 wt %): 0 persons
- Number of subjects showed ± reactivity, 1st time (healthy adult subjects; 1 wt %): 0 persons
- Number of subjects showed + reactivity, 1st time (healthy adult subjects; 1 wt %): 0 persons
- Number of subjects showed ++ reactivity, 1st time (healthy adult subjects; 1 wt %): 0 persons
- Number of subjects showed ± reactivity, 2nd time (healthy adult subjects; 1 wt %): 0 persons
- Number of subjects showed + reactivity, 2nd time (healthy adult subjects; 1 wt %): 0 persons
- Number of subjects showed ++ reactivity, 2nd time (healthy adult subjects; 1 wt %): 0 persons
- Number of subjects showed ± reactivity, 3rd time (healthy adult subjects; 1 wt %): 0 persons
- Number of subjects showed + reactivity, 3rd time (healthy adult subjects; 1 wt %): 0 persons
- Number of subjects showed ++ reactivity, 3rd time (healthy adult subjects; 1 wt %): 0 persons
- Number of subjects showed ± reactivity, 4th time (healthy adult subjects; 1 wt %): 0 persons
- Number of subjects showed + reactivity, 4th time (healthy adult subjects; 1 wt %): 0 persons
- Number of subjects showed ++ reactivity, 4th time (healthy adult subjects; 1 wt %): 0 persons
- Number of subjects showed ± reactivity, 5th time (healthy adult subjects; 1 wt %): 0 persons
- Number of subjects showed + reactivity, 5th time (healthy adult subjects; 1 wt %): 0 persons
- Number of subjects showed ++ reactivity, 5th time (healthy adult subjects; 1 wt %): 0 persons
- Number of subjects showed ± reactivity, 6th time (healthy adult subjects; 1 wt %): 0 persons
- Number of subjects showed + reactivity, 6th time (healthy adult subjects; 1 wt %): 0 persons
- Number of subjects showed ++ reactivity, 6th time (healthy adult subjects; 1 wt %): 0 persons
- Number of subjects showed ± reactivity, 7th time (healthy adult subjects; 1 wt %): 0 persons
- Number of subjects showed + reactivity, 7th time (healthy adult subjects; 1 wt %): 0 persons
- Number of subjects showed ++ reactivity, 7th time (healthy adult subjects; 1 wt %): 0 persons
- Number of subjects showed ± reactivity, 8th time (healthy adult subjects; 1 wt %): 0 persons
- Number of subjects showed + reactivity, 8th time (healthy adult subjects; 1 wt %): 0 persons
- Number of subjects showed ++ reactivity, 8th time (healthy adult subjects; 1 wt %): 0 persons
- Average reactivity (healthy adult subjects; 1 wt %): 0
- Number of subjects showed ± reactivity, 9th time (healthy adult subjects; 1 wt %): 0 persons
- Number of subjects showed + reactivity, 9th time (healthy adult subjects; 1 wt %): 0 persons
- Number of subjects showed ++ reactivity, 9th time (healthy adult subjects; 1 wt %): 0 persons
- Number of subjects showed ± reactivity, 1st time (healthy adult subjects; 3 wt %): 0 persons
- Number of subjects showed + reactivity, 1st time (healthy adult subjects; 3 wt %): 0 persons
- Number of subjects showed ++ reactivity, 1st time (healthy adult subjects; 3 wt %): 0 persons
- Number of subjects showed ± reactivity, 2nd time (healthy adult subjects; 3 wt %): 0 persons
- Number of subjects showed + reactivity, 2nd time (healthy adult subjects; 3 wt %): 0 persons
- Number of subjects showed ++ reactivity, 2nd time (healthy adult subjects; 3 wt %): 0 persons
- Number of subjects showed ± reactivity, 3rd time (healthy adult subjects; 3 wt %): 0 persons
- Number of subjects showed + reactivity, 3rd time (healthy adult subjects; 3 wt %): 0 persons
- Number of subjects showed ++ reactivity, 3rd time (healthy adult subjects; 3 wt %): 0 persons
- Number of subjects showed ± reactivity, 4th time (healthy adult subjects; 3 wt %): 0 persons
- Number of subjects showed + reactivity, 4th time (healthy adult subjects; 3 wt %): 0 persons
- Number of subjects showed ++ reactivity, 4th time (healthy adult subjects; 3 wt %): 0 persons
- Number of subjects showed ± reactivity, 5th time (healthy adult subjects; 3 wt %): 0 persons
- Number of subjects showed + reactivity, 5th time (healthy adult subjects; 3 wt %): 0 persons
- Number of subjects showed ++ reactivity, 5th time (healthy adult subjects; 3 wt %): 0 persons
- Number of subjects showed ± reactivity, 6th time (healthy adult subjects; 3 wt %): 0 persons
- Number of subjects showed + reactivity, 6th time (healthy adult subjects; 3 wt %): 0 persons
- Number of subjects showed ++ reactivity, 6th time (healthy adult subjects; 3 wt %): 0 persons
- Number of subjects showed ± reactivity, 7th time (healthy adult subjects; 3 wt %): 0 persons
- Number of subjects showed + reactivity, 7th time (healthy adult subjects; 3 wt %): 0 persons
- Number of subjects showed ++ reactivity, 7th time (healthy adult subjects; 3 wt %): 0 persons
- Number of subjects showed ± reactivity, 8th time (healthy adult subjects; 3 wt %): 0 persons
- Number of subjects showed + reactivity, 8th time (healthy adult subjects; 3 wt %): 0 persons
- Number of subjects showed ++ reactivity, 8th time (healthy adult subjects; 3 wt %): 0 persons
- Average reactivity (healthy adult subjects; 3 wt %): 0
- Number of subjects showed ± reactivity, 9th time (healthy adult subjects; 3 wt %): 0 persons
- Number of subjects showed + reactivity, 9th time (healthy adult subjects; 3 wt %): 0 persons
- Number of subjects showed ++ reactivity, 9th time (healthy adult subjects; 3 wt %): 0 persons
- cumulative skin irritation (healthy adult subjects; HRIPT, 0.5 to 3 wt %): without cumulative skin irritation

From patent US10882882B2, “Post fermented tea-derived kaempferol-based compound” (AMOREPACIFIC CORPORATION, priority 2016, dated 2021)
